According to patent publication US20050191628A1, “Antibiotics based upon bacteriophage lysis proteins” (priority 1999, published 2005):

Columns and labels:
Rfe = molecular target: T1, Rfe (Escherichia coli, UniProt P0AC78); type: biochemical, E. coli; details: membranes of ET505 strains; average of 3 experiments ± standard deviation
T1 construct: endogenous in cells; host or cells: E. coli K-12 ET505 (W3110 lysA::Tn10) membranes, carrying pJFlacZK (control) or pEmycZK (E-expressing)
T1 sequence (P0AC78 1-367): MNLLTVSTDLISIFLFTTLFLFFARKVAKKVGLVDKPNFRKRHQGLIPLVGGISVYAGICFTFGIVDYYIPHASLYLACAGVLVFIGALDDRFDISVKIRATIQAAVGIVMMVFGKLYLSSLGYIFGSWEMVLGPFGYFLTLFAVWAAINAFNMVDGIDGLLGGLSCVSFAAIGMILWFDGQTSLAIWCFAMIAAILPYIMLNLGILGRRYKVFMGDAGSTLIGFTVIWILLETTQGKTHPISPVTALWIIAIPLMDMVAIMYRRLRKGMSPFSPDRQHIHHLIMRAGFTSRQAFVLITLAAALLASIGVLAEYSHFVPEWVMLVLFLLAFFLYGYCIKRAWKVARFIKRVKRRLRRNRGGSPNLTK

MraY = molecular target: T2, MraY (Escherichia coli, UniProt P0A6W3); type: biochemical, E. coli; details: membranes of ET505 strains; average of 3 experiments ± standard deviation (tunicamycin: average of duplicates)
T2 construct: endogenous in cells; host or cells: E. coli K-12 ET505 (W3110 lysA::Tn10) membranes, carrying pJFlacZK (control) or pEmycZK (E-expressing)
T2 sequence (P0A6W3 1-360): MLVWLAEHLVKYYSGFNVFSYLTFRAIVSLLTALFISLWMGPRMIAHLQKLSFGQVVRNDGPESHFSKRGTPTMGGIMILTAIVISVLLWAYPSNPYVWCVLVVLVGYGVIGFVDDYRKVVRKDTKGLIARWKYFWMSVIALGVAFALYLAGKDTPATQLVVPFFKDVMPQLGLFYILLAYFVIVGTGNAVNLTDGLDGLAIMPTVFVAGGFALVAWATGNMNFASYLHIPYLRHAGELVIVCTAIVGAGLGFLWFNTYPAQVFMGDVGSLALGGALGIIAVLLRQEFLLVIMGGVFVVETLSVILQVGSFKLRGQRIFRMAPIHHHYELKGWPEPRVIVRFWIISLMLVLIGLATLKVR

Substance: tunicamycin
- cpm of [3H]-UMP converted to [3H]-UDP-GlcNAc in membrane preparations by Rfe (Rfe): 3400 ± 500 cpm
- cpm of [3H]-UMP converted to [3H]-UDP-MurNAc-pentapeptide in membrane preparations by MraY (MraY): 2000 cpm
